Reference: EPA's ToxValDB 9.5
“And” between values parts separate entries of the source, which are not always exact repeats. Identical values can stand only once.

Assays:
Rattus norvegicus [1] = conditions: oral, M/F
Mus musculus = conditions: short-term, duration: 28 days, oral, gavage, F, B6C3F1
Rattus norvegicus [2] = conditions: subchronic, duration: 56 days, oral, diet, M, Sprague-Dawley
Rattus norvegicus [3] = conditions: oral
Rattus norvegicus [4] = conditions: acute; oral; gavage
[5] = reproduction developmental, Increased incidence of hepatocellular changes including fatty change and vacuolation (M) increased susceptibility to stress factors (F)
[6] = Liver: Liver Weight, Relative + Thymus: CD8+ Cell Count
[7] = Spleen: Spleen Weight, Relative + Whole Body: Body Weight Change
[8] = subchronic, gavage, M, Sprague-Dawley
[9] = subchronic, duration: 90 days, diet, increased male spleen weight and che depression (females)
[10] = chronic, duration: 91 days, gavage, M/F, Wistar, Blood Chemistry: Ca increase, TP increase, Glob increase, TG increase, Glu decrease + Absolute Organ Weight: Liver increase, Kidney increase…
[11] = short-term, duration: 28 days, gavage, M, Sprague-Dawley, Clinical Observation: Salivation Orange urinelocomotor activity decreaserespiratory rate decrease, Incomplete eye opening Staining around …

Q: What does the source list for CC(C)C(O)(c1ccc(OC(F)(F)F)cc1)c1cncnc1 (stereo not given) [Flurprimidol]?
A: LEL (Rattus norvegicus [1]; [5]): 7.3 mg/kg-day; NOEL (Rattus norvegicus [1]; [5]): 1.8 mg/kg-day

Q: Which LEL (Mus musculus; [6]) does the source give for CCNS(=O)(=O)C(F)(F)C(F)(F)C(F)(F)C(F)(F)C(F)(F)C(F)(F)C(F)(F)C(F)(F)F [N-Ethylperfluorooctanesulfonamide] here?
A: 1 mg/kg-day

Q: What about the NEL (Mus musculus; [6]) of the same compound?
A: 0.3 mg/kg-day

Q: And the NEL (Mus musculus; Spleen: B Cell Proliferation + Spleen: B220+ Cell Count + Spleen: CD4-/CD8- Cell Count + Spleen: CD4+ Cell Count + Spleen: CD4+/CD8+ Cell …)?
A: 10 mg/kg-day

Q: What about the LEL (Mus musculus; Spleen: Plaque Forming Cell (PFC) Response + Uterus: Uterus Weight, Relative) of the same compound?
A: 0.3 mg/kg-day

Q: What about the LEL (Mus musculus; [7]) of the same compound?
A: 10 mg/kg-day

Q: What about the NEL (Mus musculus; [7]) of the same compound?
A: 3 mg/kg-day

Q: What about the LEL (Rattus norvegicus [2]; Whole Body: Body Weight Change) of the same compound?
A: 6.82 mg/kg-day and 5.7 mg/kg-day

Q: What about the NEL (Rattus norvegicus [2]; Whole Body: Clinical Observations) of the same compound?
A: 6.82 mg/kg-day and 5.7 mg/kg-day

Q: For CCCCCCCCCCCCCCCCCC(=O)OCCOC(=O)CCCCCCCCCCCCCCCCC [Octadecanoic acid, 1,2-ethanediyl ester], which NOAEL (Rattus norvegicus [3]; [8]) is on record?
A: 1000 mg/kg-day

Q: What about the NOEL (Rattus norvegicus [3]; [8]) of the same compound?
A: 1000 mg/kg-day

Q: What about the LD50 (Rattus norvegicus [4]) of the same compound?
A: > 10000 mg/kg

Q: What does the source list for CC(C)OC(=O)Nc1ccccc1 [Propham]?
A: LEL (Rattus norvegicus [1]; [9]): 100 mg/kg-day; NOEL (Rattus norvegicus [1]; [9]): 50 mg/kg-day

Q: c1ccc(P(c2ccccc2)c2ccccc2)cc1 [Triphenylphosphine] was tested. Which NOAEL (Rattus norvegicus [3]; [10]) did it give?
A: 60 mg/kg-day

Q: And the NOEL (Rattus norvegicus [3]; [10])?
A: 6 mg/kg-day

Q: For O=[N+]([O-])C(Br)=Cc1ccccc1 [beta-Bromo-beta-nitrostyrene], which NOEL (Rattus norvegicus [3]; subchronic, gavage, M/F, Fischer 344, Deaths + Body Weight Changes: decrease>150 af>>300 + Hematology: RBC increase, WBC increase, Seg increase, Ret increase + Blood Chemistry: …) is on record?
A: < 37 mg/kg-day

Q: How did the NOAEL (Rattus norvegicus [3]; subchronic, duration: 90 days, diet, M/F, Wistar, Urinalysis: Ket increase, Uro increase, Transitional epithelial cell increase, Epithelial cell casts + Blood Chemistry: gamma-GTP increase, …) turn out when CC(=O)/C=C/C1=C(C)CCCC1(C)C [beta-Ionone] was run?
A: 96 mg/kg-day

Q: Which results are given for COc1ccc([N+](=O)[O-])cc1 [p-Nitroanisole]?
A: NOAEL (Rattus norvegicus [3]; [11]): 100 mg/kg-day; NOEL (Rattus norvegicus [3]; [11]): < 100 mg/kg-day

Q: With N#Cc1c(Cl)c(Cl)c(C#N)c(Cl)c1Cl [p-Phthalodinitrile, tetrachloro-] as the compound, how does the NOEL (Rattus norvegicus [3]; subchronic, gavage, Sprague-Dawley) read?
A: 1000 mg/kg-day

Q: For CC(C)(C)S [t-Butyl mercaptan], which NOEL (Rattus norvegicus [3]; subchronic, gavage, M, CD(SD), Clinical Observation: Salivation + Body Weight Changes: decrease + Food Consumption: decrease + Hematology: RBC decrease, HGB decrease, HCT …) is on record?
A: < 10 mg/kg-day

Q: And the NOEL (Rattus norvegicus [3]; subchronic, gavage, M, Sprague-Dawley, Body Weight Changes: decrease200 + Hematology: MCHC decrease, APTT increase, RBC decrease, Hgb decrease, Hct decrease, Plt increase, PT …)?
A: < 10 mg/kg-day

Q: For ClC1=C(Cl)[C@]2(Cl)[C@H]3[C@H]([C@H](Cl)C(Cl)[C@@H]3Cl)[C@@]1(Cl)C2(Cl)Cl (stereo partly drawn) [trans-Nonachlor], which NOEL (Rattus norvegicus [3]; subchronic, diet, M/F, Sprague-Dawley, Blood Chemistry: Pi increase, A/G decrease, Thyroxine increasetake decrease, T4 increase + Absolute Organ Weight: Liver increase + Relative …) is on record?
A: < 0.48 mg/kg-day
